This series in a line: Polymerization / stability of the molecule in solution with water. In kind it is physicochemical. The note with it: industrially-available preparation placed in solution with water. The source says:
Solutions of industrially-available preparations (e.g. 3-(trihydroxysilyl) propyldimethyloctadecyl ammonium chloride) were placed in solution with water. It was discovered that at higher concentrations (e.g. at or above about 3 to 4 percent weight/volume) the molecules polymerize to an unsatisfactory degree, making a stable solution either impossible or heavier and unsuitable for saturating a wipe-type substrate or spraying onto a surface or substrate. […] These solutions remain stable in impregnated or saturated substrates (e.g. wipes in a liquid-tight containers) or in a bottle or other container for the solution. […] When the substrate is used to wipe, the solution with the solute remains on the wiped surface in a layer. As the solvent is dried, by evaporation or otherwise, the solute remains in a dry physical layer that remains to physically combat microbes.

The source of these data is patent US8968771B2, “Articles and methods for applying antimicrobial protection” (Coeus Technology, Inc., priority 2011, dated 2015).

For `CCCCCCCCCCCCCCCCCC[N+](C)(C)CCC[Si](O)(O)O.[Cl-]` [3-(trihydroxysilyl) propyldimethyloctadecyl ammonium chloride], the “Concentration in water at which the molecules polymerize to an unsatisfactory degree” value fell in the range of 3 to 4 percent weight/volume.
